Test results: paper PMC3184404 (The FEBS journal, 2011)
Where two headings read alike, the source gives them in different places.

Assays:
[1] = target: T1, Bovine liver glutamate dehydrogenase (Bos taurus, UniProt P00366); settings: cited from earlier work
[2] = target: T1, Bovine liver glutamate dehydrogenase; assay: Fluorescence titrations of reduced cofactor binding; settings: NADPH, pH 8.0
[3] = target: T1, Bovine liver glutamate dehydrogenase; assay: Thermal stability by differential scanning calorimetry; format: binding
[4] = target: T1, Bovine liver glutamate dehydrogenase; assay: Initial rate kinetics of oxidative deamination, zinc inhibition; format: biochemical
immobilized trypsin = assay: Control experiments with azocasein on immobilized protease; format: biochemical; settings: azocasein as substrate, zinc at the concentrations used
[5] = target: T1, Bovine liver glutamate dehydrogenase; settings: pH 7.0, 1mM NAD^+
[6] = target: T1, Bovine liver glutamate dehydrogenase; settings: plus zinc
[7] = enzyme + 200mM norvaline, pH 7.0
[8] = enzyme + 20mM glutamate + zinc, pH 7.0
[9] = enzyme + 200mM norvaline + zinc, pH 7.0
[10] = enzyme + zinc, 0.1 M phosphate pH 7.0
[11] = control experiments, data not shown

T1 sequence (P00366 58-558): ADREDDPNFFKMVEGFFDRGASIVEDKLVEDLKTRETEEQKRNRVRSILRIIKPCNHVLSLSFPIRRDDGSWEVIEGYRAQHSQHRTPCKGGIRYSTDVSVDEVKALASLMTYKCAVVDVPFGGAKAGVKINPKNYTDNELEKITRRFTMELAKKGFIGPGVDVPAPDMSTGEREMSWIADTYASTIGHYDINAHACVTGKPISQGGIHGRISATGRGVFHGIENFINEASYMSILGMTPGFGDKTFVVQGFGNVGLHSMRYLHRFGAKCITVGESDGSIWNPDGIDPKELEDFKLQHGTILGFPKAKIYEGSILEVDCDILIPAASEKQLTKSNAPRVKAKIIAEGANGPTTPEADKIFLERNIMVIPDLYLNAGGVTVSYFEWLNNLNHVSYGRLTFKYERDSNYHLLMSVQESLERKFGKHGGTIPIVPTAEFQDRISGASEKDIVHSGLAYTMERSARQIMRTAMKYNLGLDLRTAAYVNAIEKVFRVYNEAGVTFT

[Cl-].[Cl-].[Cl-].[Eu+3] [Eu^3+, europium (III) chloride]
Effect on the ability of zinc to inhibit the enzyme [1]: reversed | Effect on the activity of the enzyme [1]: no effect

NC(=O)C1=CN([C@@H]2O[C@H](COP(=O)(O)OP(=O)(O)OC[C@H]3O[C@@H](n4cnc5c(N)ncnc54)[C@H](OP(=O)(O)O)[C@@H]3O)[C@@H](O)[C@H]2O)C=CC1 [NADPH, Nicotinamide Adenine Dinucleotide Phosphate]
Kd ([2]; + 100 μM zinc): 1.04 µM | Kd ([2]; +20mM glutamate + 100 μM zinc): 1.72 µM | Kd ([2]; +20mM glutamate): 2.4 µM | Kd ([2]; +200mM norvaline + 100 μM zinc): 9.27 µM | Kd ([2]; +200mM norvaline): 7.35 µM | Kd ([2]; no additions): 6.33 µM

CCC[C@H](N)C(=O)O [Norvaline, norvaline]
TM [3, 7]: 67.8 °C | ΔH [3, 7]: 188.7 | ΔS [3, 7]: 0.554

CC(=O)[O-].CC(=O)[O-].[Zn+2] [Zinc, zinc acetate]
Inhibition at saturating concentrations of substrates [4]: potent inhibitor | Inhibition of oxidative deamination with glutamate as substrate ([4]; pH 8): effective inhibition | Inhibition of oxidative deamination with norvaline as substrate ([4]; pH 8): no significant inhibition | TM [3, 8]: 59.3 °C | ΔH [3, 8]: 126.4 | ΔS [3, 8]: 0.381 | TM [3, 9]: 68.1 °C | ΔH [3, 9]: 179.9 | ΔS [3, 9]: 0.528 | TM [3, 10]: 59.2 °C | ΔH [3, 10]: 128.9 | ΔS [3, 10]: 0.388 | Effect on the immobilized protease (immobilized trypsin): did not effect | Pre-Steady State Burst Amplitude ([5]; 50mM glutamate + 100μM zinc): 1.053 340F450 | Pre-Steady State Burst Rate ([5]; 50mM glutamate + 100μM zinc): 0.858 340F450/sec | Steady State Rate ([5]; 50mM glutamate + 100μM zinc): 0.187 340F450/sec | Pre-Steady State Burst Amplitude ([5]; 50mM glutamate + 200μM zinc): 0.771 340F450 | Pre-Steady State Burst Rate ([5]; 50mM glutamate + 200μM zinc): 0.972 340F450/sec | Steady State Rate ([5]; 50mM glutamate + 200μM zinc): 0.158 340F450/sec | Fragment 3446 (residues 114–146) Peak Height relative to ACTH standard ([6]; 5 Mins, pH 8.0): 0.52 | Fragment 4089 (residues 1–35) Peak Height relative to ACTH standard ([6]; 5 Mins, pH 8.0): 0 | Fragment 34,645 (residues 144–459) Peak Height relative to Native ([6]; 5 Mins, pH 8.0): 0.17 | Fragment 3446 (residues 114–146) Peak Height relative to ACTH standard ([6]; 10 Mins, pH 8.0): 0.54 | Fragment 4089 (residues 1–35) Peak Height relative to ACTH standard ([6]; 10 Mins, pH 8.0): 0.16 | Fragment 34,645 (residues 144–459) Peak Height relative to Native ([6]; 10 Mins, pH 8.0): 0.18 | Fragment 3446 (residues 114–146) Peak Height relative to ACTH standard ([6]; 15 Mins, pH 8.0): 0.75 | Fragment 4089 (residues 1–35) Peak Height relative to ACTH standard ([6]; 15 Mins, pH 8.0): 0.68 | Fragment 34,645 (residues 144–459) Peak Height relative to Native ([6]; 15 Mins, pH 8.0): 0.86 | Fragment 3446 (residues 114–146) Peak Height relative to ACTH standard ([6]; Time = 0, pH 8.0): 0 | Fragment 4089 (residues 1–35) Peak Height relative to ACTH standard ([6]; Time = 0, pH 8.0): 0 | Fragment 34,645 (residues 144–459) Peak Height relative to Native ([6]; Time = 0, pH 8.0): 0

[Mg+2] [magnesium]
Effect on the activity of the enzyme [4, 11]: no effect | Effect on the inhibition by zinc [4, 11]: no effect
